According to US6716858B1, “Methods for inhibiting diabetic complications” (Kansas University Medical Center, priority 1995, dated 2004):
Read-outs that look alike come from different tables or passages of the source.

Tests used:
[1] = Drug and metabolite levels in plasma and urine, STZ diabetic rat study; assay type: in vivo; details: for concentration at 21 week / concentration at 28 weeks: rat, plasma, oral; for concentration at 21 week: week 21, 4 animals, read-out: Pyridoxamine in plasma; for concentration at 28 weeks: diabetic animals
Procedure: Animal studies. Diabetes was induced by a single tail vein injection of 45 mg/kg of STZ in 0.1 M sodium citrate buffer, pH 4.5. Control animals were sham injected with buffer only. Diabetes was confirmed by measuring blood glucose levels at 2 and 3 days after the STZ-injection. Animals with plasma glucose higher than 16 mM were classified as diabetic. The diabetic rats were divided randomly into an untreated diabetic group (n=12) and two diabetic treatment groups, receiving either PM (n=13) or AG (n=12) at 1 g/L in drinking water. Two non-diabetic control groups were included, one receiving no treatment (n=13), the other receiving PM(HCl)2 at 2 g/L in drinking water (n=12); the higher dose of PM in the PM-treated control group was designed to compensate, in part, for the lower water intake of non-diabetic, compared to diabetic animals. All animals were housed individually with a light dark cycle of 12 hours each, and had free access to food and water. To maintain body weight and to limit hyperglycemia, diabetic animals received 3 IU of ultralente insulin (Humulin U, Eli Lilly) three times per week; this was increased to 5 IU after week 15 to adjust for the increase in body weight.
Measurement of drug levels in plasma and urine. PM and AG concentrations in plasma were measured by reverse phase high performance liquid chromatography (RP-HPLC). PM and its B6 vitamers were assayed as described by Sampson and O'Connor (Nutrition Res. 9:259-272 (1989)) and Sakurai et al. (J. Nutr. Sci. Vitaminol. 37:341-348 (1991)), using 293/393 nm excitation and emission wavelengths. AG was quantified at 380 nm as the 4-nitrobenzaldehyde conjugate (Beaven et al. 1969. J. Pharmacol. Exp. Therapeutics 165:14-22).

[2] = tested on: Sprague-Dawley rats, glomerular changes; assay type: in vivo, rat; details: for effect of treatment on loss of Heparan Sulfate Proteoglycan side-chain staining (mAb JM-403): rats injected with Amadori-RSA or AGE-RSA (both cases); for microalbuminuria / albuminuria: rats receiving Amadori-RSA or AGE-RSA
Procedure: Male Sprague-Dawley rats (Sasco, 100 g) were used. After a 1 week adaptation period, rats were placed in metabolic cages to obtain a 24 hour urine specimen for 2 days before administration of injections. Rats were then divided into experimental and control groups and given tail vein injections with either saline, unmodified RSA (50 mg/kg), Amadori-RSA (50 mg/kg), NaBH4-reduced Amadori-RSA (50 mg/kg), or AGE-RSA (50 mg/kg).
Rats injected with Amadori-RSA and AGE-RSA were then either left untreated, or further treated by the administration of either aminoguanidine (AG; 25 mg/kg), pyridoxamine (PM; 25 mg/kg), or a combination of AG and PM (10 mg/kg each) through the drinking water. Body weight and water intake of the rats were monitored weekly in order to adjust dosages. At the conclusion of the experimental study the rats were placed in metabolic cages to obtain 24 hour urine specimen for 2 days prior to sacrificing the animals.
After perfusion with saline, kidney sections were fixed in ice-cold 10% neutral buffered formalin. Paraffin-embedded tissue sections from all rat groups (n=4 per group) were processed for staining with Harris' alum hematoxylin and eosin (H&E), perodic acid/Schiff reagent (PAS), and alcian blue (pH 1.0 and pH 2.5) stains for histological examination. The alcian blue sections were scored by two investigators in a blinded fashion.
Parrafin-embedded sections were deparaffinized and then blocked with 10% goat serum in PBS for 30 min at room temperature. […] The sections were then rinsed for 30 min with PBS in the dark, mounted in aqueous mounting media for immunocytochemistry (Biomeda), and cover slipped. Sections were scored in a blinded fashion. Kidney sections were evaluated by the number and intensity of glomerular staining in 5 regions around the periphery of the kidney. Scores were normalized for the immunofluorescent score per 100 glomeruli with a scoring system of 0-3.
All animals studies were carried out in conformance with institutional guidelines for animal research protocols. Male Sprague-Dawley 100 g rats (Sasco Co., Omaha Nebr.) were used in these studies. After a 1 week adaptation period, rats were placed in metabolic cages for 2 days to get two 24 hour urine specimens before starting treatment. Rats were then given daily single tail vein injections for 6 weeks according to the following treatment groups: saline, unmodified RSA (50 mg/kg), Amadori-RSA (50 mg/kg), NaBH4-reduced Amadori-RSA (50 mg/kg), and AGE-RSA (50 mg/kg). Groups of rats injected with Amadori-RSA or AGE-RSA were also administered aminoguanidine (25 mg/kg/day), pyridoxamine (25 mg/kg/day), a combination of the two (10 mg/kg/day each), or with nothing added to the drinking water. Body weight and water intake of the rat were monitored weekly in order to adjust dosages. At the conclusion of the study, the rats were placed in metabolic cages for two days to get two 24 hour urine specimens before sacrificing the animals.
Total protein in urine was determined by Bio-Rad assay. Albumin in urine was determined by competitive ELISA using rabbit anti-rat serum albumin (Cappell) as primary antibody (1:2000) and goat anti-rabbit IgG (Sigma) as a secondary antibody (1:2000). Urine was tested with Multistix 8 SG (Miles) for glucose, ketone, specific gravity, blood, pH, protein, nitrite and leukocytes. Creatinine measurements were performed with a Beckman creatinine analyzer II. Intracardiac blood samples were collected before termination and were used in the determination of creatinine clearance, blood glucose (glucose oxidase, Sigma), fructosamine (nitroblue tetrazolium, Sigma), and glycated Hb (Glycotest II analytical boronate columns, Pierce).
After perfusion with saline, kidney sections were fixed in ice-cold 10% neutral buffered formalin. […]

[3] = 6 weeks, n = 4, average with standard error
[4] = Amadori-RSA injected rats, 6 weeks
[5] = rats injected with Amadori-RSA or AGE-RSA

SMILES: Cc1ncc(CO)c(CN)c1O [pyridoxamine]
- urinary PM ([1]; 23 weeks, PM intake 801±22 μmol/day): 824 ± 44 µmol/day
- plasma PM concentration ([1]; non-diabetic animals, PM(HCl)2 2 g/L in drinking water, from first week): ~6 µM
- concentration at 21 week ([1]; 1 g/L in drinking water, Diabetic + PM (1 g/L)): 76 ± 18 µM
- concentration at 21 week ([1]; 2 g/L in drinking water, Control + PM (2 g/L)): 6.3 ± 2.1 µM
- concentration at 28 weeks ([1]; 1 g/L in drinking water): 106 ± 17 µM
- Alcian Blue pH 1.0, scoring of glomerular staining (sulfated glycosaminoglycans) [2, 3]: 2.62 ± 0.24
- Alcian Blue pH 2.5, scoring of glomerular staining (acidic glycosaminoglycans) [2, 3]: 1.56 ± 0.21
- HS core protein (Ab BL-31), scoring of glomerular staining [2, 3]: 234 ± 8
- effect of treatment on glomerular albumin cross-linking ([2]; AGE-RSA injected rats): completely blocked
- effect of treatment on glomerular volume (GV) ([2]; AGE-RSA injected rats, 6 weeks): completely prevented
- effect of treatment on glomerular albumin cross-linking ([2]; Amadori-RSA injected rats): significantly lower cross-linking than Aminoguanidine
- effect of treatment on glomerular volume (GV) [2, 4]: no significant changes from controls
- Creat C-2wk ([2]; creatinine clearance at 2 weeks, n = 4): 0.66 ± 0.07 ml/(min*100g)
- Creat C-6wk ([2]; creatinine clearance at 6 weeks, n = 4): 0.66 ± 0.17 ml/(min*100g)
- effect of treatment on elevated glomerular staining for RSA [2, 5]: Significant reduction of this effect
- effect of treatment on increase in average glomerular volume [2, 5]: A significant reduction of this effect
- effect of treatment on reduced Heparan Sulfate Proteoglycan Core protein staining [2, 5]: A reduction of this effect
- effect of treatment on loss of Heparan Sulfate Proteoglycan side-chain staining (mAb JM-403) [2]: completely prevented this loss
- effect of treatment on loss of Heparan Sulfate Proteoglycan side-chain staining (mAb JM-403) ([2]; listed as PM): A significant reduction of this effect
- microalbuminuria / albuminuria ([2]; 6 weeks): very low intra-group scatter and to the lowest means
- microalbuminuria / albuminuria ([2]; 6 weeks, listed as PM): none was seen if PM was co-administered

SMILES: N=C(N)NN [aminoguanidine, reference compound]
- concentration at 28 weeks ([1]; 1 g/L in drinking water): 87 ± 10 µM
- effect of treatment on glomerular albumin cross-linking ([2]; AGE-RSA injected rats): intermediate results but did not lead to statistically significant differences from either the controls or from the untreated subgroup
- effect of treatment on glomerular volume (GV) ([2]; AGE-RSA injected rats, 6 weeks): significant elevation in GV persisted
- effect of treatment on HS loss ([2]; Amadori-RSA injected rats): appeared to not prevent this loss
- effect of treatment on glomerular volume (GV) [2, 4]: No statistically significant differences
- effect of treatment on elevated glomerular staining for RSA [2, 5]: not with AG
- effect of treatment on increase in average glomerular volume [2, 5]: No effect
